From patent publication US9386769B2 (HUNAN RESEARCH INSTITUTE OF CHEMICAL INDUSTRY CO., LTD., priority 2011, dated 2016)
Like-named read-outs stand apart in the source and are kept apart here. One block for each molecule: values may come before it.

What was measured:
Sclerotinia sclerotiorum = experiment: Fungicidal activity against Sclerotinia sclerotiorum, mycelial growth inhibition on PDA plate; assay type: cell-based; conditions: for inhibition at 0.1562 µg/mL: 0.1562 mg/L; for inhibition at 0.3125 µg/mL: 0.3125 mg/L; for inhibition at 0.625 µg/mL: 0.625 mg/L; for inhibition at 1.255 µg/mL: 1.255 mg/L; for inhibition at 25 µg/mL / activities against Sclerotinia sclerotiorum (growth inhibition rating): 25 mg/L; for inhibition at 25 µg/mL: read-out: activities against Sclerotinia sclerotiorum (growth inhibition rating)
Protocol: (§1) Bioassay method: Stock solution of every test compound was prepared in an appropriate solvent such as N,N-dimethylformamide (DMF), and then diluted to the required test concentrations with sterile water containing 0.1% Tween 80; Pipetted 3 mL of test solution to 27 mL of potato dextrose agar (PDA) medium at 45° C. and poured into a Petri dish to prepare a plate after shaking thoroughly; 6 mm of diameter of fungi cake from the edge of 7-day-old […] colony was inoculated on the central of the plate, wherein mycelium facing down, and cultured in the culture tank at 28° C. The diameter of fungi spread was calculated 4 days later using the control group tested with the diluent only. Test was run 4 times. Data were subjected to EXCEL statistical software analysis and the growth inhibition of the tested compound was calculated according to the corresponding control, the activity was rated on the basis of percentage of growth inhibition using the following rating system: A, inhibition (%)>90; B, 90≧inhibition (%)>70; C, 70≧inhibition (%)>50; D, inhibition (%)≦50.

Botrytis cinerea = experiment: Fungicidal activity against Botrytis cinerea, mycelial growth inhibition on PDA plate; assay type: cell-based; conditions: for inhibition at 0.1562 µg/mL: 0.1562 mg/L; for inhibition at 0.3125 µg/mL: 0.3125 mg/L; for inhibition at 0.625 µg/mL: 0.625 mg/L; for inhibition at 1.255 µg/mL: 1.255 mg/L; for inhibition at 25 µg/mL / activities against Botrytis cinerea (growth inhibition rating): 25 mg/L; for inhibition at 25 µg/mL: read-out: activities against Botrytis cinerea (growth inhibition rating)
Protocol: as §1
Fungicidal activities against Botrytis cinerea of compounds represented by the general formula (I) were evaluated with the corresponding method in Example 18, and some of the test results are shown in Table 6 to Table 8.

Alternaria alternata = experiment: Fungicidal activity against Alternaria alternata, mycelial growth inhibition on PDA plate; assay type: cell-based
Protocol: as §1
Fungicidal activities against Alternaria alternata of compounds represented by the general formula (I) were evaluated with the corresponding method in Example 18, and some of the test results are shown in Table 9 to Table 10.

Aphis fabae = experiment: Insecticidal activity against Aphis fabae, dipping of horsebean seedlings; assay type: in vivo; conditions: 24 h; for mortality at 500 µg/mL: read-out: activities against Aphis fabae (mortality rating)
Protocol: Bioassay method: Stock solution of every test compound was prepared in an appropriate solvent such as N,N-dimethylformamide, and a small amount of Tween 80 was added as emulsification agent, then diluted to the required test concentrations with distilled water, using the control group tested with distilled water only. More than 20 adults of Aphis fabae were transferred to newly unearthed horsebean seedlings and 24 hr later, horsebean seedlings with Aphis fabae were dipped in the test solution for 5 s, then allowed to dry with filter paper, transplanted to the absorbent sponge and covered with a glass tube, then kept in a room for normal cultivation. Each assay contained three replications, and results were averaged. Mortality was assessed 24 hr after the treatment. The activity was rated to A, B, C or D according to the rating system in Example 22.

[1] = Sclerotinia sclerotiorum, Table 5, read-out: activities against Sclerotinia sclerotiorum (growth inhibition)
[2] = Sclerotinia sclerotiorum, 2.5 mg/L, Table 4, read-out: activities against Sclerotinia sclerotiorum (growth inhibition)
[3] = Sclerotinia sclerotiorum, 2.5 mg/L, Table 5, read-out: activities against Sclerotinia sclerotiorum (growth inhibition)
[4] = Sclerotinia sclerotiorum, 5 mg/L, Table 4, read-out: activities against Sclerotinia sclerotiorum (growth inhibition)
[5] = Sclerotinia sclerotiorum, 5 mg/L, Table 5, read-out: activities against Sclerotinia sclerotiorum (growth inhibition)
[6] = Sclerotinia sclerotiorum, 10 mg/L, Table 4, read-out: activities against Sclerotinia sclerotiorum (growth inhibition)
[7] = Botrytis cinerea, Table 8, read-out: activities against Botrytis cinerea (growth inhibition)
[8] = Botrytis cinerea, 2.5 mg/L, Table 7, read-out: activities against Botrytis cinerea (growth inhibition)
[9] = Botrytis cinerea, 2.5 mg/L, Table 8, read-out: activities against Botrytis cinerea (growth inhibition)
[10] = Botrytis cinerea, 5 mg/L, Table 7, read-out: activities against Botrytis cinerea (growth inhibition)
[11] = Botrytis cinerea, 5 mg/L, Table 8, read-out: activities against Botrytis cinerea (growth inhibition)
[12] = Botrytis cinerea, 10 mg/L, Table 7, read-out: activities against Botrytis cinerea (growth inhibition)
[13] = read-out: activities against Aphis fabae (mortality)

melting point: 71.4 to 74.1 °C
SMILES: CCN(Cc1cnc(Cl)s1)c1nc(Cl)ccc1[N+](=O)[O-]

melting point: 95.8 to 96.8 °C
SMILES: CCN(Cc1cnc(Cl)s1)c1nc(Cl)ccc1Cl

SMILES: CCOc1ccc([N+](=O)[O-])c(N(CC)Cc2cnc(Cl)s2)n1 [Compound 04, 6-ethoxy-N-((2-chlorothiazole-5-yl)methyl)-N-ethyl-3-nitropyridine-2-amine]
inhibition at 0.1562 µg/mL (Sclerotinia sclerotiorum; [1]): 53%
inhibition at 0.3125 µg/mL (Sclerotinia sclerotiorum; [1]): 59%
inhibition at 0.625 µg/mL (Sclerotinia sclerotiorum; [1]): 61%
inhibition at 1.255 µg/mL (Sclerotinia sclerotiorum; [1]): 65%
inhibition at 2.5 µg/mL (Sclerotinia sclerotiorum; [2]): 75%
inhibition at 2.5 µg/mL (Sclerotinia sclerotiorum; [3]): 70%
inhibition at 5 µg/mL (Sclerotinia sclerotiorum; [4]): 90%
inhibition at 5 µg/mL (Sclerotinia sclerotiorum; [5]): 75%
inhibition at 10 µg/mL (Sclerotinia sclerotiorum; [6]): 100%
inhibition at 25 µg/mL (Sclerotinia sclerotiorum; Sclerotinia sclerotiorum): > 90%
inhibition at 0.1562 µg/mL (Botrytis cinerea; [7]): 63%
inhibition at 0.3125 µg/mL (Botrytis cinerea; [7]): 76%
inhibition at 0.625 µg/mL (Botrytis cinerea; [7]): 81%
inhibition at 1.255 µg/mL (Botrytis cinerea; [7]): 82%
inhibition at 2.5 µg/mL (Botrytis cinerea; [8]): 70%
inhibition at 2.5 µg/mL (Botrytis cinerea; [9]): 87%
inhibition at 5 µg/mL (Botrytis cinerea; [10]): 78%
inhibition at 5 µg/mL (Botrytis cinerea; [11]): 90%
inhibition at 10 µg/mL (Botrytis cinerea; [12]): 94%
inhibition at 25 µg/mL (Botrytis cinerea; Botrytis cinerea): > 90%
inhibition at 2.5 µg/mL (Alternaria alternata; Alternaria alternata, 2.5 mg/L, read-out: activities against Alternaria alternata (growth inhibition)): 55%
inhibition at 5 µg/mL (Alternaria alternata; Alternaria alternata, 5 mg/L, read-out: activities against Alternaria alternata (growth inhibition)): 60%
inhibition at 10 µg/mL (Alternaria alternata; Alternaria alternata, 10 mg/L, read-out: activities against Alternaria alternata (growth inhibition)): 70%
inhibition at 25 µg/mL (Alternaria alternata; Alternaria alternata, 25 mg/L, read-out: activities against Alternaria alternata (growth inhibition rating)): 70 to 90%
mortality at 500 µg/mL (Aphis fabae): > 90%
mortality at 6.25 µg/mL (Aphis fabae; [13]): 0%
mortality at 25 µg/mL (Aphis fabae; [13]): 26.7%
mortality at 100 µg/mL (Aphis fabae; [13]): 46.7%

SMILES: CCCOc1ccc([N+](=O)[O-])c(N(CC)Cc2cnc(Cl)s2)n1 [Compound 07]
activities against Sclerotinia sclerotiorum (growth inhibition rating) (Sclerotinia sclerotiorum): B (B, 90≧inhibition (%)>70)
activities against Botrytis cinerea (growth inhibition) (Botrytis cinerea; 2.5 mg/L, Table 7): 44%
activities against Botrytis cinerea (growth inhibition) (Botrytis cinerea; 5 mg/L, Table 7): 52%
activities against Botrytis cinerea (growth inhibition) (Botrytis cinerea; 10 mg/L, Table 7): 68%
activities against Botrytis cinerea (growth inhibition rating) (Botrytis cinerea): B (B, 90≧inhibition (%)>70)
activities against Alternaria alternata (growth inhibition) (Alternaria alternata; 2.5 mg/L): 20%
activities against Alternaria alternata (growth inhibition) (Alternaria alternata; 5 mg/L): 36%
activities against Alternaria alternata (growth inhibition) (Alternaria alternata; 10 mg/L): 45%
activities against Alternaria alternata (growth inhibition rating) (Alternaria alternata; 25 mg/L): C (C, 70≧inhibition (%)>50)

SMILES: CCCN(Cc1cnc(Cl)s1)c1nc(OC)ccc1[N+](=O)[O-] [Compound 08]
activities against Sclerotinia sclerotiorum (growth inhibition rating) (Sclerotinia sclerotiorum): A (A, inhibition (%)>90)
activities against Botrytis cinerea (growth inhibition) (Botrytis cinerea; 2.5 mg/L, Table 7): 68%
activities against Botrytis cinerea (growth inhibition) (Botrytis cinerea; 5 mg/L, Table 7): 70%
activities against Botrytis cinerea (growth inhibition) (Botrytis cinerea; 10 mg/L, Table 7): 70%
activities against Botrytis cinerea (growth inhibition rating) (Botrytis cinerea): A (A, inhibition (%)>90)
activities against Alternaria alternata (growth inhibition) (Alternaria alternata; 2.5 mg/L): 45%
activities against Alternaria alternata (growth inhibition) (Alternaria alternata; 5 mg/L): 48%
activities against Alternaria alternata (growth inhibition) (Alternaria alternata; 10 mg/L): 60%
activities against Alternaria alternata (growth inhibition rating) (Alternaria alternata; 25 mg/L): C (C, 70≧inhibition (%)>50)

SMILES: CCCN(Cc1cnc(Cl)s1)c1nc(OCC)ccc1[N+](=O)[O-] [Compound 09]
activities against Sclerotinia sclerotiorum (growth inhibition rating) (Sclerotinia sclerotiorum): A (A, inhibition (%)>90)
activities against Botrytis cinerea (growth inhibition) (Botrytis cinerea; 2.5 mg/L, Table 7): 52%
activities against Botrytis cinerea (growth inhibition) (Botrytis cinerea; 5 mg/L, Table 7): 65%
activities against Botrytis cinerea (growth inhibition) (Botrytis cinerea; 10 mg/L, Table 7): 65%
activities against Botrytis cinerea (growth inhibition rating) (Botrytis cinerea): A (A, inhibition (%)>90)

SMILES: CCCOc1ccc([N+](=O)[O-])c(N(CCC)Cc2cnc(Cl)s2)n1 [Compound 10]
activities against Sclerotinia sclerotiorum (growth inhibition rating) (Sclerotinia sclerotiorum): B (B, 90≧inhibition (%)>70)
activities against Botrytis cinerea (growth inhibition rating) (Botrytis cinerea): B (B, 90≧inhibition (%)>70)

SMILES: COc1ccc([N+](=O)[O-])c(N(C)Cc2cnc(Cl)s2)n1 [Compound 17]
activities against Alternaria alternata (growth inhibition rating) (Alternaria alternata; 25 mg/L): B (B, 90≧inhibition (%)>70)

SMILES: CCNc1ccc([N+](=O)[O-])c(N(CC)Cc2cnc(Cl)s2)n1 [Compound 24]
activities against Botrytis cinerea (growth inhibition rating) (Botrytis cinerea): B (B, 90≧inhibition (%)>70)

SMILES: CCN(Cc1cnc(Cl)s1)c1nc(N(C)C)ccc1[N+](=O)[O-] [Compound 28, 6-dimethylamino-N-((2-chlorothiazole-5-yl)methyl)-N-ethyl-3-nitropyridine-2-amine]
inhibition at 1.25 µg/mL (Sclerotinia sclerotiorum; Sclerotinia sclerotiorum, 1.25 mg/L, Table 4, read-out: activities against Sclerotinia sclerotiorum (growth inhibition)): 42%
inhibition at 2.5 µg/mL (Sclerotinia sclerotiorum; [2]): 64%
inhibition at 5 µg/mL (Sclerotinia sclerotiorum; [4]): 82%
inhibition at 10 µg/mL (Sclerotinia sclerotiorum; [6]): 90%
inhibition at 25 µg/mL (Sclerotinia sclerotiorum; Sclerotinia sclerotiorum): > 90%
inhibition at 1.25 µg/mL (Botrytis cinerea; Botrytis cinerea, 1.25 mg/L, Table 7, read-out: activities against Botrytis cinerea (growth inhibition)): 79%
inhibition at 2.5 µg/mL (Botrytis cinerea; [8]): 86%
inhibition at 5 µg/mL (Botrytis cinerea; [10]): 91%
inhibition at 10 µg/mL (Botrytis cinerea; [12]): 96%
inhibition at 25 µg/mL (Botrytis cinerea; Botrytis cinerea): > 90%
melting point: 74.6 to 78.4 °C

SMILES: CCOc1ccc([N+](=O)[O-])c(N(Cc2cnc(Cl)s2)C(C)C)n1 [Compound 31]
activities against Botrytis cinerea (growth inhibition rating) (Botrytis cinerea): B (B, 90≧inhibition (%)>70)

SMILES: CCN(Cc1cnc(Br)s1)c1nc(OC)ccc1[N+](=O)[O-] [Compound 33, 6-methoxy-N-((2-bromothiazole-5-yl)methyl)-N-ethyl-3-nitropyridine-2-amine]
inhibition at 2.5 µg/mL (Sclerotinia sclerotiorum; [2]): 91%
inhibition at 5 µg/mL (Sclerotinia sclerotiorum; [4]): 100%
inhibition at 10 µg/mL (Sclerotinia sclerotiorum; [6]): 100%
inhibition at 25 µg/mL (Sclerotinia sclerotiorum; Sclerotinia sclerotiorum): > 90%
inhibition at 25 µg/mL (Botrytis cinerea; Botrytis cinerea): 70 to 90%

SMILES: CCN(Cc1sc(C)nc1C)c1nc(OC)ccc1[N+](=O)[O-] [Compound 44]
activities against Sclerotinia sclerotiorum (growth inhibition) (Sclerotinia sclerotiorum; 2.5 mg/L, Table 4): 70%
activities against Sclerotinia sclerotiorum (growth inhibition) (Sclerotinia sclerotiorum; 5 mg/L, Table 4): 75%
activities against Sclerotinia sclerotiorum (growth inhibition) (Sclerotinia sclerotiorum; 10 mg/L, Table 4): 87%
activities against Sclerotinia sclerotiorum (growth inhibition rating) (Sclerotinia sclerotiorum): A (A, inhibition (%)>90)
activities against Botrytis cinerea (growth inhibition rating) (Botrytis cinerea): A (A, inhibition (%)>90)
activities against Alternaria alternata (growth inhibition rating) (Alternaria alternata; 25 mg/L): B (B, 90≧inhibition (%)>70)

SMILES: CCOc1nc(N(CC)Cc2cnc(Cl)s2)ccc1[N+](=O)[O-] [Compound 45]
mortality at 500 µg/mL (Aphis fabae): 70 to 90%

SMILES: COc1nc(NCc2cnc(Cl)s2)ccc1[N+](=O)[O-] [Compound 47]
activities against Botrytis cinerea (growth inhibition rating) (Botrytis cinerea): C (C, 70≧inhibition (%)>50)

SMILES: COC(=O)NC(=S)Nc1ccccc1NC(=S)NC(=O)OC [Thiophanate-Methyl, reference compound]
inhibition at 0.1562 µg/mL (Sclerotinia sclerotiorum; [1]): 33%
inhibition at 0.3125 µg/mL (Sclerotinia sclerotiorum; [1]): 47%
inhibition at 0.625 µg/mL (Sclerotinia sclerotiorum; [1]): 63%
inhibition at 1.255 µg/mL (Sclerotinia sclerotiorum; [1]): 72%
inhibition at 2.5 µg/mL (Sclerotinia sclerotiorum; [3]): 77%
inhibition at 5 µg/mL (Sclerotinia sclerotiorum; [5]): 85%
inhibition at 0.1562 µg/mL (Botrytis cinerea; [7]): 18%
inhibition at 0.3125 µg/mL (Botrytis cinerea; [7]): 75%
inhibition at 0.625 µg/mL (Botrytis cinerea; [7]): 88%
inhibition at 1.255 µg/mL (Botrytis cinerea; [7]): 93%
inhibition at 2.5 µg/mL (Botrytis cinerea; [9]): 98%
inhibition at 5 µg/mL (Botrytis cinerea; [11]): 100%
